Data published in the NIST ThermoML archive (doi:10.1007/s10765-006-0063-0).

How the values were obtained:
[1] = xn = mol fraction of the nth substance listed; settings: 101 kPa, Liquid, Sing-around technique in a fixed-path interferometer
[2] = 101.33 kPa, Liquid; for speed of sound: Sing-around technique in a fixed-path interferometer

C1COCCO1 [1,4-dioxane] + c1ccccc1
[1]
Settings | speed of sound [m/s]
283.15 K, x1 = 0.0521 | 1370.8
283.15 K, x1 = 0.0942 | 1372.6
283.15 K, x1 = 0.1987 | 1376.5
283.15 K, x1 = 0.2956 | 1380.2
283.15 K, x1 = 0.3936 | 1383.8
283.15 K, x1 = 0.4947 | 1387.4
283.15 K, x1 = 0.5964 | 1391.1
283.15 K, x1 = 0.6956 | 1395.1
283.15 K, x1 = 0.7963 | 1399.3
283.15 K, x1 = 0.8949 | 1404.1
283.15 K, x1 = 0.9526 | 1407.1
298.15 K, x1 = 0.0516 | 1300.8
298.15 K, x1 = 0.0888 | 1302.4
298.15 K, x1 = 0.1966 | 1307.3
298.15 K, x1 = 0.316 | 1312.2
298.15 K, x1 = 0.4145 | 1316.3
298.15 K, x1 = 0.5004 | 1320
298.15 K, x1 = 0.5975 | 1324.1
298.15 K, x1 = 0.6932 | 1328.4
298.15 K, x1 = 0.7962 | 1333.1
298.15 K, x1 = 0.8938 | 1338
298.15 K, x1 = 0.9535 | 1341.1
313.15 K, x1 = 0.0568 | 1232.1
313.15 K, x1 = 0.0913 | 1233.6
313.15 K, x1 = 0.2021 | 1239.2
313.15 K, x1 = 0.2963 | 1243.7
313.15 K, x1 = 0.3981 | 1248.6
313.15 K, x1 = 0.4975 | 1253.1
313.15 K, x1 = 0.5981 | 1257.9
313.15 K, x1 = 0.6972 | 1262.7
313.15 K, x1 = 0.7941 | 1267.5
313.15 K, x1 = 0.9034 | 1273.3
313.15 K, x1 = 0.9424 | 1275.5

c1ccccc1 [benzene]
[2]
Settings | mass density [kg/m3] | speed of sound [m/s]
283.15 K | 889.9 | 1368.7
298.15 K | 873.5 | 1298.3
313.15 K | 857.5 | 1229.5

C1CCCCC1 [cyclohexane]
[2]
Settings | mass density [kg/m3] | speed of sound [m/s]
283.15 K | 788 | 1327.8
298.15 K | 773.7 | 1254.4
313.15 K | 759.6 | 1181.1

C1CCCC1 [cyclopentane]
[2]
Settings | mass density [kg/m3] | speed of sound [m/s]
283.15 K | 754.9 | 1283.5
298.15 K | 739.7 | 1206.6
313.15 K | 724.7 | 1129.9

C1CCCC1 [cyclopentane] + C1COCCO1
[1]
Settings | speed of sound [m/s]
283.15 K, x2 = 0.0516 | 1280.7
283.15 K, x2 = 0.095 | 1279.4
283.15 K, x2 = 0.1944 | 1280.5
283.15 K, x2 = 0.2987 | 1286
283.15 K, x2 = 0.3973 | 1294.2
283.15 K, x2 = 0.499 | 1305.8
283.15 K, x2 = 0.6003 | 1320.5
283.15 K, x2 = 0.7063 | 1339.6
283.15 K, x2 = 0.8072 | 1361
283.15 K, x2 = 0.9076 | 1385.1
283.15 K, x2 = 0.9528 | 1397
298.15 K, x2 = 0.0488 | 1204.5
298.15 K, x2 = 0.0945 | 1203.8
298.15 K, x2 = 0.1818 | 1205.5
298.15 K, x2 = 0.2983 | 1211.9
298.15 K, x2 = 0.3959 | 1221.4
298.15 K, x2 = 0.4962 | 1234.1
298.15 K, x2 = 0.6067 | 1251.5
298.15 K, x2 = 0.7034 | 1269.8
298.15 K, x2 = 0.811 | 1293.3
298.15 K, x2 = 0.9025 | 1316.4
298.15 K, x2 = 0.9506 | 1329.6
313.15 K, x2 = 0.0449 | 1128.5
313.15 K, x2 = 0.094 | 1128.3
313.15 K, x2 = 0.195 | 1131.3
313.15 K, x2 = 0.2962 | 1138.6
313.15 K, x2 = 0.3969 | 1149.5
313.15 K, x2 = 0.4983 | 1163.6
313.15 K, x2 = 0.5994 | 1180.8
313.15 K, x2 = 0.6987 | 1200.2
313.15 K, x2 = 0.8026 | 1223.8
313.15 K, x2 = 0.9066 | 1250.8
313.15 K, x2 = 0.9482 | 1263

C1CCCC1 [cyclopentane] + C1COCO1
[1]
Settings | speed of sound [m/s]
283.15 K, x2 = 0.101 | 1277.3
283.15 K, x2 = 0.2019 | 1275.8
283.15 K, x2 = 0.3024 | 1278.6
283.15 K, x2 = 0.4023 | 1285
283.15 K, x2 = 0.5028 | 1295.3
283.15 K, x2 = 0.6 | 1307.9
283.15 K, x2 = 0.6995 | 1325.7
283.15 K, x2 = 0.796 | 1347.3
283.15 K, x2 = 0.8999 | 1375.7
298.15 K, x2 = 0.0998 | 1201.4
298.15 K, x2 = 0.1993 | 1200.8
298.15 K, x2 = 0.3005 | 1204.5
298.15 K, x2 = 0.4041 | 1212
298.15 K, x2 = 0.5024 | 1222.7
298.15 K, x2 = 0.6002 | 1236.4
298.15 K, x2 = 0.7004 | 1255.5
298.15 K, x2 = 0.7988 | 1278.8
298.15 K, x2 = 0.8992 | 1307.4
313.15 K, x2 = 0.1028 | 1125.3
313.15 K, x2 = 0.2032 | 1125.9
313.15 K, x2 = 0.3014 | 1130.2
313.15 K, x2 = 0.403 | 1138.5
313.15 K, x2 = 0.5008 | 1150
313.15 K, x2 = 0.6008 | 1165.5
313.15 K, x2 = 0.6991 | 1184.8
313.15 K, x2 = 0.7991 | 1209
313.15 K, x2 = 0.8987 | 1237.8
